# From PMC6934184, “Selective DNA-PKcs inhibition extends the therapeutic index of localized radiotherapy and chemotherapy” (The Journal of Clinical Investigation, 2019)
# Molecular target: T1, KIT D816V (Homo sapiens, UniProt P10721, D816V)
# T1 construct: purchased Thermo Fisher Scientific (Life Technologies) SelectScreen
# Assay: SelectScreen LanthaScreen
# Assay type: binding
# Conditions: read-out: % displacement
# In short: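 Percent values come from Thermo SelectScreen profiling of NU5455, combining activity and binding assays. CSF1R was run in Z'LYTE format at Km app ATP, and CAMK1 in Adapta format with ATP listed at 10.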
# T1 sequence (P10721 26-976 D816V): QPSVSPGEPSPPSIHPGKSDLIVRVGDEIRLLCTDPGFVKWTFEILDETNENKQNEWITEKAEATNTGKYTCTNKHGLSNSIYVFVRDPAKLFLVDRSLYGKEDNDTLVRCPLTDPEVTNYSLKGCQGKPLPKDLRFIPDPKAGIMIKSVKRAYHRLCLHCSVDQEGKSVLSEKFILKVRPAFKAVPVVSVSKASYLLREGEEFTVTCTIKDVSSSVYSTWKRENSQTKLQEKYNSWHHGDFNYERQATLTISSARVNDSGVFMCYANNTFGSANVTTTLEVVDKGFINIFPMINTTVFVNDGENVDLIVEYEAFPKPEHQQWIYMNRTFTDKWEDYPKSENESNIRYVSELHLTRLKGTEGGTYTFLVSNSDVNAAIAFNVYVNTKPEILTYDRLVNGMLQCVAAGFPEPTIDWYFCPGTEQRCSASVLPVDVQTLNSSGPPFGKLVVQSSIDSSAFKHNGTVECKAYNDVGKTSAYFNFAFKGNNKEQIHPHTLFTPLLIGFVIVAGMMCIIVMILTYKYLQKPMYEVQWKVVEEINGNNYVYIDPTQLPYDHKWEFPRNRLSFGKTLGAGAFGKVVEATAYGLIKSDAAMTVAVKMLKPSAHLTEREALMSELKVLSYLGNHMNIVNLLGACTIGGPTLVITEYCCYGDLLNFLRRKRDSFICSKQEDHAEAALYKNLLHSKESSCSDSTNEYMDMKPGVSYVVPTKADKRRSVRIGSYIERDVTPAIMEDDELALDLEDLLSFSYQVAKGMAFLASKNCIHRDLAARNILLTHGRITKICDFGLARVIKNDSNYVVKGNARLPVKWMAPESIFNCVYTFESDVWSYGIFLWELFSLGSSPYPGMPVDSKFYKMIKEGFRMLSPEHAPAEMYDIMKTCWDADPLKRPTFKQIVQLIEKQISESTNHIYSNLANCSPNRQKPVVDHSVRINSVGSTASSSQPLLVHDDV
structure (smiles),measurement,value
CN(C(=O)CN1CCOCC1)c1ccc2sc3c(-c4cccc5c(=O)cc(N6CC7CCC(C6)O7)oc45)cccc3c2c1 [NU5455],inhibition at 1 µM,0.9%
